Laboratory results from PMC6797648 (Targeted Oncology, 2019).
“And” between values parts separate entries of the source, which are not always exact repeats. Equal entries are not always repeated.

Experiments:
[1] = Blood to plasma ratio in human whole blood; assay type: in vitro ADME; conditions: from the human B:P of 1.4
[2] = target: PIK3CD/PIK3R1 (Homo sapiens, UniProt O00329); experiment: Purified enzyme-binding kinetics
[3] = Single-dose oral and IV pharmacokinetics in beagle dogs; assay type: in vivo, beagle dog
[4] = Allometric scaling of VSS to a hypothetical 60-kg human
[5] = Plasma and tissue distribution in A20 syngeneic model; assay type: in vivo, BALB/c mice; conditions: for Tumor concentration, times higher than plasma concentration: 4 h after the last dose
[6] = healthy volunteers, oral; cited from earlier work
[7] = test system: peripheral blood basophils; conditions: healthy volunteers, oral administration, CD63 expression following ex vivo stimulation; cited from earlier work
[8] = test system: PI3Kδ; conditions: read-out: IC50, inhibition of PI3Kδ in cellular assays; cited from earlier work
[9] = target: purified PI3Kδ enzyme; conditions: read-out: IC50, inhibition of purified PI3Kδ enzyme; cited from earlier work
[10] = test system: Caco-2 cell monolayer; experiment: Caco-2 permeability and percent recovery
[11] = Caco-2 permeability and percent recovery; conditions: human, Caco-2, pH 7.4
[12] = ME-401 versus idelalisib, in vitro
[13] = 50 mg/kg twice daily for 4 days
[14] = 1 µM, Caco-2, apical to basolateral
[15] = 1 µM, Caco-2, basolateral to apical

Chain of PIK3CD/PIK3R1 (O00329 whole entry): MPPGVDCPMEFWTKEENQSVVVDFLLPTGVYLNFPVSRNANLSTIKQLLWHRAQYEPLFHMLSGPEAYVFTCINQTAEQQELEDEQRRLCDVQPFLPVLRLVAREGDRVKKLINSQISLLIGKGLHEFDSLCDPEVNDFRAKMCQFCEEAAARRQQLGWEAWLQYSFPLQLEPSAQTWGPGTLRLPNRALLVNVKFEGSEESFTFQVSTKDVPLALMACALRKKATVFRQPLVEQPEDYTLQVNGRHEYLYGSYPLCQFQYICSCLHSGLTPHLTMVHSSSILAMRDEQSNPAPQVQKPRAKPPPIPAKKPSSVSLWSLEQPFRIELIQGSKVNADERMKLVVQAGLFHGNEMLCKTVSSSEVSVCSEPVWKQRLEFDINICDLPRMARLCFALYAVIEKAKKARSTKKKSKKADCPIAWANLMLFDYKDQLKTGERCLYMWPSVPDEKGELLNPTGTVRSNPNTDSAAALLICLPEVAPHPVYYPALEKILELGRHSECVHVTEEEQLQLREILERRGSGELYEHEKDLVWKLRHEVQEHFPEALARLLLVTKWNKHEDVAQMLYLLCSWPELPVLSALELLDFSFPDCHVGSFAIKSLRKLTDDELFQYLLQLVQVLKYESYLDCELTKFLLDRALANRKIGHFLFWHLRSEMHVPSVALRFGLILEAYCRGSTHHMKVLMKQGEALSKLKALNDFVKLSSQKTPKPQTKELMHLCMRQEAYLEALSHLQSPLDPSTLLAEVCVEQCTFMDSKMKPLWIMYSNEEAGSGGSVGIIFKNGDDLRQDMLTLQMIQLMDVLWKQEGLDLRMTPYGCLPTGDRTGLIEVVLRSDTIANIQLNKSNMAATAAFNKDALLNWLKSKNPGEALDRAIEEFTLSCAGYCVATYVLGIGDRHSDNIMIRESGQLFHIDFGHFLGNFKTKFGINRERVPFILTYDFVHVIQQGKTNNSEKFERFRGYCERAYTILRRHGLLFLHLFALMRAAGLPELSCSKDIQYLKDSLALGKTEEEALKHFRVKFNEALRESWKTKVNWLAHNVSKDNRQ
Chain of PIK3CD/PIK3R1 (P27986 whole entry partner): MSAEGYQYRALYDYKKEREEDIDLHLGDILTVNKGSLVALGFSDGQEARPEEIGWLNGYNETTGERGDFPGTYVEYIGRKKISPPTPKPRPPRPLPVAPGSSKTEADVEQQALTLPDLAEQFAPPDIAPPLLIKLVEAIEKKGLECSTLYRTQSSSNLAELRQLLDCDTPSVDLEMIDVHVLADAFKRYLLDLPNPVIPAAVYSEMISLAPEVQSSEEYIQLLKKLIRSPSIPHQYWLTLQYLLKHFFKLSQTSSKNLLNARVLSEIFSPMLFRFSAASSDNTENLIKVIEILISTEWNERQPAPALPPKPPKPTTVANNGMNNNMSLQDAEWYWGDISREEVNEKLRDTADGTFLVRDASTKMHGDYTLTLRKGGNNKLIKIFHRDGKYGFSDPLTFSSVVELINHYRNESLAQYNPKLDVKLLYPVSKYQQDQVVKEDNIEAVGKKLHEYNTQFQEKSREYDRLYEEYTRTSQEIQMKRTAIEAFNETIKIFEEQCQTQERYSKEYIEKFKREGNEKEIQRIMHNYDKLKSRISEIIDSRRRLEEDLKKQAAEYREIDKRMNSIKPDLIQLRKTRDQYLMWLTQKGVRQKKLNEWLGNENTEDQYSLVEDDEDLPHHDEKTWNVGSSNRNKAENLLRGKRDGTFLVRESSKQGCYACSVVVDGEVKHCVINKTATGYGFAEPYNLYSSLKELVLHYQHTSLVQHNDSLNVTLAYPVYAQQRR

## CN1CCC(c2ccccc2CC(C)(C)Nc2nc(N3CCOCC3)nc(-n3c(C(F)F)nc4ccccc43)n2)CC1 [ME-401]
[1]
  Drug in the blood that distributes into blood cells at equilibrium: approximately 60%
[2]; 22 °C
  Residence time: ~5 h and 5.3 h
[2]; 22 °C, 1:1 binding model
  kd dissociation rate constant: 5.2e-05 s⁻¹
[2]; [12]
  Binds more tightly than idelalisib: ~ 37 times
  Remains on-target longer than idelalisib: ~ 138 times
[2]; read-out: KD equilibrium dissociation constant, 22 °C, 1:1 binding model
  Kd: 30 pM and 30.3 pM
[3]; dogs, 2 mg/kg IV
  AUCinf: 1247 ng·h/mL
[3]; dogs, oral 2 mg/kg versus IV 2 mg/kg
  Bioavailability: 79%
[3]; fasted dogs, 2 mg/kg orally
  AUCinf: 980 ng·h/mL
[4]
  Extrapolated human VSS, times higher than blood volume: approximately 100 times
  Extrapolated human VSS, times higher than whole body volume: approximately 15 times
  Extrapolated human VSS, times larger than that reported for idelalisib: ~ 28 times
[5]; [13]
  Tumor concentration, times higher than plasma concentration: approximately 20 times
[5]; 75 mg/kg twice daily for 4 days, 4 and 24 h after the last dose
  Brain tissue concentration as percent of plasma values: approximately 30%
[5]; 75 mg/kg twice daily for 4 days
  Tumor concentration, times higher than plasma concentration: approximately 30 times
[5]; oral administration, A20 syngeneic mouse model
  Decrease of tumor levels at 24 h compared with levels at 4 h: 30–50%
[6]
  Half-life: 28 h
[7]
  EC90 plasma concentration, inhibition of basophil activation: 5 ng/mL
[8]
  IC50: 600 pM
[9]
  IC50: 5000 pM
[10]; 1 µM, Caco-2
  Retained in the monolayer: ~ 50%
[10]; [14]
  Recovery, AB, cell lysate included: 79.3 ± 5.5%
  Recovery, AB, only the experimental solutions measured: 30.3 ± 6.7%
[10]; [15]
  Recovery, BA, cell lysate included: 85 ± 8.5%
  Recovery, BA, only the experimental solutions measured: 69 ± 5.6%
[10]; apical to basolateral, Caco-2, pH 7.4, 2 h, 37 °C
  AB Papp: 3.67 ± 1.37 × 10^−6 cm/s
[10]; basolateral to apical, Caco-2, pH 7.4, 2 h, 37 °C
  BA Papp: 7.69 ± 1.39 × 10^−6 cm/s

## CC(C)NCC(O)COc1cccc2ccccc12 (stereo not drawn) [propranolol, reference compound]
[11]
  Papp at 2 h, 10 uM: > 30 ×10⁻⁶ cm/s

## CC[C@H](Nc1ncnc2[nH]cnc12)c1nc2cccc(F)c2c(=O)n1-c1ccccc1 [Idelalisib, idelalisib, reference compound]
[2]; idelalisib versus ME-401
  Dissociation rate, times higher than ME-401: ~ 100 times
[5]; [13]
  Tumor concentration, times higher than plasma concentration: approximately three times higher
